Experimental data taken from patent US20140314791A1, “METHODS OF TREATING CANCER” (DANA-FARBER CANCER INSTITUTE, INC., priority 2012, published 2014).

Test system: Lkb1-null cells
Assay: In vitro study of combination treatments with AZD7762
Assay type: cell-based, mouse
Conditions: data not shown

Nc1ccn([C@@H]2O[C@H](CO)[C@@H](O)C2(F)F)c(=O)n1 [Gemcitabine]
synergy with AZD7762 in the treatment of Lkb1-null cells: moderately synergistic
